Data from patent publication US20080076760A1, “2,3,4,5-TETRAHYDRO-1H-1,5-BENZODIAZEPINE DERIVATIVE AND MEDICINAL COMPOSITION” (priority 2004, published 2008).
Counter-ions that a name gives are not always drawn.

What was measured:
V1a receptor = target: T1, V1a receptor (Rattus norvegicus, UniProt P30560); assay: V1a receptor antagonism in awake rat (oral administration), inhibition of AVP-induced vasopressure; assay type: in vivo; conditions: for AVP vasopressure inhibition effect after 8 hours since administration: 8 hours after administration; for maximum vasopressure inhibition rate: one third of the 3 mg/kg SR49059 dose, maximum after 2 to 6 hours since administration, 30 mU/kg AVP i.v.
T1 construct: from tissue; host or cells: whole animal: awake male Sprague-Dawley rats
T1 sequence (P30560 whole entry): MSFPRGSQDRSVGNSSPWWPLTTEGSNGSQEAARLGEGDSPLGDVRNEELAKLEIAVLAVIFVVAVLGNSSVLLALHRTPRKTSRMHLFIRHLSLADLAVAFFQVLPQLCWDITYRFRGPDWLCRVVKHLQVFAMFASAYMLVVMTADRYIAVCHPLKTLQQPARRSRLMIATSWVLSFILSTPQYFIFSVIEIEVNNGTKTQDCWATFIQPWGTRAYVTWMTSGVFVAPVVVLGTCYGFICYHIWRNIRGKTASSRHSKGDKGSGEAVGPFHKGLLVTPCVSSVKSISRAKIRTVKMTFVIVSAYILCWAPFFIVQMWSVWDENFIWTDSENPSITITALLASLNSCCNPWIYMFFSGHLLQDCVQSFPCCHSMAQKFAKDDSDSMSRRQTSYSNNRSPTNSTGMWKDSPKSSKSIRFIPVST
Protocol: One day before evaluation of test compounds, a cannula for blood pressure measurement was inserted into left carotid artery, and a cannula for arginine vasopressin (AVP) administration was inserted into left cervical vein. Blood pressure of artery cannula was measured via pressure transducer during rats were awake. During evaluation of test compounds, elevation breadth of mean blood pressure resulting from intravenous administration of 30 mU/kg of AVP was determined as a vasopressure control, in advance. After test compound was suspended in 0.5% methylcellulose solution and orally administered at 1 to 3 mg/kg, 30 mU/kg of AVP was intravenously administered at fixed time points from 0.5 to 8 hours, and vasopressure value was measured. [Vasopressure inhibition rate (%) at each measurement point after administration]=[(A−B)/A]×100 Wherein, control vasopressure=A, and vasopressure value at each measurement point=B

male ICR mice = assay: Acute toxicity study, oral, male ICR mice; assay type: in vivo, mouse; conditions: single administration in 0.5% methylcellulose, observed 6 days
Protocol: Test compound suspended in 0.5% methylcellulose solution was orally administered to male ICR mice (body weight 25 to 35 g), which were separated into groups each having 5 mice, and body weight change and general symptom after 6 days since administration were observed. During the test period except for 17 to 20 hours before administration and after 2 hours since administration, mice were allowed to take feed and water ad libitum.

[1] = target: human vasopressin V1a receptor (Homo sapiens, UniProt P37288); assay: Receptor binding study, [3H]AVP displacement on CHO cell membranes, human V1a; conditions: [3H]AVP displacement, CHO cell membrane, 25° C., one hour; read-out: Human V1a Ki
Chain of human vasopressin V1a receptor (P37288 whole entry): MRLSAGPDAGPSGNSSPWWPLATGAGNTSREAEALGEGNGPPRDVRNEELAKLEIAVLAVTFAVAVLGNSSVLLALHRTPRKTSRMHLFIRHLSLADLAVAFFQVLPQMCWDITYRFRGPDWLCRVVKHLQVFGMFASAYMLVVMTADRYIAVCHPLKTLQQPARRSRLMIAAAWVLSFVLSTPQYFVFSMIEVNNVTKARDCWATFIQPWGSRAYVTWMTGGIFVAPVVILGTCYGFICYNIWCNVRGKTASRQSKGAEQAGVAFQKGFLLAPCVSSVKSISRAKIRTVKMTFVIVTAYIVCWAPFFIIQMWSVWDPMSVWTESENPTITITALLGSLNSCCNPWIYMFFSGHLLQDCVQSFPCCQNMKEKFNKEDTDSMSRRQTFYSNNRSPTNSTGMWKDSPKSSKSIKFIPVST
Method in brief: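 Membrane binding in 50 mM Tris-HCl pH 7.4 with MgCl2 and 0.1% BSA, incubated 1 h at 25° C. Bound ligand collected by rapid filtration on glass fiber filters, washed with ice-cold buffer, and counted for radioactivity. Nonspecific binding defined with 1 μM unlabeled AVP.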

[2] = target: human vasopressin V2 receptor (Homo sapiens, UniProt P30518); assay: Receptor binding study, [3H]AVP displacement on CHO cell membranes, human V2; conditions: [3H]AVP displacement, CHO cell membrane, 25° C., one hour; read-out: Human V2 Ki
Chain of human vasopressin V2 receptor (P30518 whole entry): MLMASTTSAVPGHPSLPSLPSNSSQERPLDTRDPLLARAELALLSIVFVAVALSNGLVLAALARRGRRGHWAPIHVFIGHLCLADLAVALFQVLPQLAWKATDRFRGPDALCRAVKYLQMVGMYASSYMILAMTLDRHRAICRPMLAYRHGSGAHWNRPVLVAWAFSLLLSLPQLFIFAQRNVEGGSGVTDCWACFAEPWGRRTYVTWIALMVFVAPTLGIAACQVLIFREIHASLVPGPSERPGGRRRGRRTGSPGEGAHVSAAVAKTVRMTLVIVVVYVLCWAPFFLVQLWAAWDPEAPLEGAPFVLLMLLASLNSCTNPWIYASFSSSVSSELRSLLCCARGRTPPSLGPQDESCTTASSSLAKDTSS
Method in brief: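 Membranes from CHO cells expressing human V2 receptor incubated with [3H]AVP (0.5-1.0 nM) and test compound at various concentrations in 50 mM Tris-HCl pH 7.4 with MgCl2 and 0.1% BSA, 1 h at 25 °C. Bound radioactivity counted after glass-fibre filtration; nonspecific binding defined with 1 μM unlabelled AVP.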

Row | SMILES | AVP vasopressure inhibition effect after 8 hours since administration (V1a receptor) | maximum vasopressure inhibition rate (V1a receptor) [%] | Toxicity expressing dose (male ICR mice) [mg/kg] | Ki [1] [nM] | Ki [2] [nM]
1 | CCCCN1CCN(CCCOc2cc(C(=O)N3CC[C@H](C)Nc4ccccc43)ccc2-c2ccc3[nH]ccc3c2)CC1 [122 maleate] | significant AVP vasopressure inhibition effect | 67.3 | >300 | – | –
2 | CCOC(=O)CC(=O)NCCCOc1cc(C(=O)N2CC[C@H](C)Nc3ccccc32)ccc1-c1ccc2[nH]ccc2c1 [Example 170, ethyl 3-[[3-[2-(1H-indol-5-yl)-5-[[(4S)-4-methyl-2,3,4,5-tetrahydro-1H-1,5-benzodiazepin-1-yl]carbonyl]phenoxy]propyl]amino]-3-oxopropanoate] | – | – | – | 0.37 | 2.6
3 | CC(C)N(C)CCCOc1cc(C(=O)N2CC[C@H](C)Nc3ccccc32)ccc1-c1ccc2[nH]ccc2c1 [Example 85, N-[3-[2-(1H-indol-5-yl)-5-[[(4S)-4-methyl-2,3,4,5-tetrahydro-1H-1,5-benzodiazepin-1-yl]carbonyl]phenoxy]propyl]-N-isopropyl-N-methylamine] | – | – | – | 0.052 | 7.7
4 | COc1cc(C(=O)N2CCC(C)Nc3ccccc32)ccc1-c1ccc2[nH]ccc2c1 (centres unmarked) [Example 1, 1-[4-(1H-indol-5-yl)-3-methoxybenzoyl]-4-methyl-2,3,4,5-tetrahydro-1H-1,5-benzodiazepine] | – | – | – | 0.39 | 1.7
5 | CCCCN(CC)CCCOc1cc(C(=O)N2CC[C@H](C)Nc3ccccc32)ccc1-c1ccc2[nH]ccc2c1 [Example 124, N-ethyl-N-[3-[2-(1H-indol-5-yl)-5-[[(4S)-4-methyl-2,3,4,5-tetrahydro-1H-1,5-benzodiazepin-1-yl]carbonyl]phenoxy]propyl]-1-butaneamine] | – | – | – | 0.37 | 20
6 | CCCN(C)CCCCCOc1cc(C(=O)N2CC[C@H](C)Nc3ccccc32)ccc1-c1ccc2[nH]ccc2c1 [Example 126] | – | – | – | 0.24 | 7
7 | C[C@H]1CCN(C(=O)c2ccc(-c3ccc(N)cc3)c(OCCCN)c2)c2ccccc2N1 [Example 54, 2′-(3-aminopropoxy)-4′-[[(4S)-4-methyl-2,3,4,5-tetrahydro-1H-1,5-benzodiazepin-1-yl]carbonyl][1,1′-biphenyl]-4-amine] | – | – | – | 0.41 | 731
8 | CCCN(C)CCCCOc1cc(C(=O)N2CC[C@H](C)Nc3ccccc32)ccc1-c1ccc2[nH]ccc2c1 [117 fumarate] | significant AVP vasopressure inhibition effect | 77.7 | >300 | – | –
9 | CCCN(C)CCCOC(=O)c1cc(C(=O)N2CC[C@H](C)Nc3ccccc32)ccc1-c1ccc2[nH]ccc2c1 [Example 132, 3-[methyl(propyl)amino]propyl 2-(1H-indol-5-yl)-5-[[(4S)-4-methyl-2,3,4,5-tetrahydro-1H-1,5-benzodiazepin-1-yl]carbonyl]benzoate] | – | – | – | 0.25 | 172
10 | CC(=O)Nc1cc(C(=O)N2CC[C@H](C)Nc3ccccc32)ccc1-c1ccc2[nH]ccc2c1 [Example 17, N-[2-(1H-indol-5-yl)-5-[[(4S)-4-methyl-2,3,4,5-tetrahydro-1H-1,5-benzodiazepin-1-yl]carbonyl]phenyl]acetamide] | – | – | – | 0.13 | 11
11 | CCCN1CCN(CCCOc2cc(C(=O)N3CC[C@H](C)Nc4ccccc43)ccc2-c2ccc3[nH]ccc3c2)CC1 [Example 113, (4S)-1-[4-(1H-indol-5-yl)-3-[3-(4-propyl-1-piperazinyl)propoxy]benzoyl]-4-methyl-2,3,4,5-tetrahydro-1H-1,5-benzodiazepine] | – | – | – | 0.26 | 5
12 | C[C@H]1CCN(C(=O)c2ccc(-c3ccc4[nH]ccc4c3)c(OCCCN(C)CCN(C)C)c2)c2ccccc2N1 [Example 112, N1-[3-[2-(1H-indol-5-yl)-5-[[(4S)-4-methyl-2,3,4,5-tetrahydro-1H-1,5-benzodiazepin-1-yl)carbonyl]phenoxy]propyl]-N1,N2,N2-trimethyl-1,2-ethaneamine] | – | – | – | 0.42 | 23
